# US20060229433A1, “Modified antiviral peptides with increased activity and cell membrane affinity” (priority 2003, published 2006)
# Values joined by “and” are separate entries in the source; they are usually repeats but may differ in a detail not shown here. Equal values may be shown once. Peptide text beside a SMILES is read from it.
# Assays:
# Type in all cases: cell-based
# HIV-1 NL 4-3 [1] = experiment: HIV-1 infection of C8166 cells (syncytia formation, p24 ELISA) with HIV-1 NL 4-3; set-up: key: ++, +, (+), (+)− and − represent decreasing numbers of syncitia formed; ++, +, (+), (+)− and − represent decreasing numbers of syncitia formed; ++, +, (+), (+)− and − represent decreasing numbers of syncitia formed; ++, +, (+), (+)− and − represent decreasing numbers of syncitia formed; ++, +, (+), (+)− and − represent decreasing numbers of syncitia formed; conditions: Table 6
# In short: (§1)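 C8166 T-cells were preincubated with peptide for 1 h at 37 °C, then exposed for 1 h to HIV-1 at 1000 TCID50/ml, washed, and cultured with peptide kept present throughout, with medium replaced at day 4. Infection was scored by syncytia formation and by supernatant p24 ELISA, with at least two runs in duplicate.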
# HIV-1 NDK = experiment: HIV-1 infection of C8166 cells (syncytia formation, p24 ELISA) with HIV-1 NDK; set-up: key to syncitia formed, Day 4 / syncitia formed, Day 5 / syncitia formed, Day 6 / syncitia formed, Day 7: ++, +, (+), (+)− and − represent decreasing numbers of syncitia formed; ++, +, (+), (+)− and − represent decreasing numbers of syncitia formed; ++, +, (+), (+)− and − represent decreasing numbers of syncitia formed; ++, +, (+), (+)− and − represent decreasing numbers of syncitia formed; ++, +, (+), (+)− and − represent decreasing numbers of syncitia formed; conditions: for P 24: P 24 after Day 7
# In short: as §1
# HIV-1 NL 4-3 [2] = experiment: HIV-1 infection of C8166 cells (syncytia formation, p24 ELISA) with HIV-1 NL 4-3; set-up: key to syncitia formed, Day 4 / syncitia formed, Day 5 / syncitia formed, Day 6 / syncitia formed, Day 7: ++, +, (+), (+)− and − represent decreasing numbers of syncitia formed; ++, +, (+), (+)− and − represent decreasing numbers of syncitia formed; ++, +, (+), (+)− and − represent decreasing numbers of syncitia formed; ++, +, (+), (+)− and − represent decreasing numbers of syncitia formed; ++, +, (+), (+)− and − represent decreasing numbers of syncitia formed
# In short: as §1
# [3] = C8166 cells, HIV-1 subtype B NL 4-3, Table 9, two lines = tested twice, 8 days apart
smiles,measurement,setting,value
"N=C(N)NCCC[C@H](NC(=O)CNC(=O)[C@@H]1CCCN1C(=O)CN)C(=O)O [GPGR, reference compound] (H-GPGR-OH; N-terminus and C-terminus assumed)",Day 4 syncitia formed,HIV-1 NL 4-3 [1]; 0.005 μM,−
same,Day 5 syncitia formed,HIV-1 NL 4-3 [1]; 0.005 μM,++
same,Day 6 syncitia formed,HIV-1 NL 4-3 [1]; 0.005 μM,++
same,Day 4 syncitia formed,HIV-1 NL 4-3 [1]; 0.01 μM,−
same,Day 5 syncitia formed,HIV-1 NL 4-3 [1]; 0.01 μM,+
same,Day 6 syncitia formed,HIV-1 NL 4-3 [1]; 0.01 μM,++
same,Day 7 syncitia formed,HIV-1 NL 4-3 [1]; 0.01 μM,++
same,Day 4 syncitia formed,HIV-1 NL 4-3 [1]; 0.05 μM,−
same,Day 5 syncitia formed,HIV-1 NL 4-3 [1]; 0.05 μM,+
same,Day 6 syncitia formed,HIV-1 NL 4-3 [1]; 0.05 μM,+
same,Day 7 syncitia formed,HIV-1 NL 4-3 [1]; 0.05 μM,++
same,Day 4 syncitia formed,HIV-1 NL 4-3 [1]; 0.1 μM,−
same,Day 5 syncitia formed,HIV-1 NL 4-3 [1]; 0.1 μM,(+)
same,Day 6 syncitia formed,HIV-1 NL 4-3 [1]; 0.1 μM,+
same,Day 7 syncitia formed,HIV-1 NL 4-3 [1]; 0.1 μM,+
same,Day 4 syncitia formed,HIV-1 NL 4-3 [1]; 0.5 μM,−
same,Day 5 syncitia formed,HIV-1 NL 4-3 [1]; 0.5 μM,−
same,Day 6 syncitia formed,HIV-1 NL 4-3 [1]; 0.5 μM,−
same,Day 7 syncitia formed,HIV-1 NL 4-3 [1]; 0.5 μM,+
same,Day 4 syncitia formed,HIV-1 NL 4-3 [1]; 1 μM,−
same,Day 5 syncitia formed,HIV-1 NL 4-3 [1]; 1 μM,−
same,Day 6 syncitia formed,HIV-1 NL 4-3 [1]; 1 μM,−
same,Day 7 syncitia formed,HIV-1 NL 4-3 [1]; 1 μM,+
same,Day 4 syncitia formed,HIV-1 NL 4-3 [1]; 5 μM,−
same,Day 5 syncitia formed,HIV-1 NL 4-3 [1]; 5 μM,−
same,Day 6 syncitia formed,HIV-1 NL 4-3 [1]; 5 μM,−
same,Day 7 syncitia formed,HIV-1 NL 4-3 [1]; 5 μM,−
same,"syncitia formed, Day 4",HIV-1 NDK; 0.005 μM,−
same,"syncitia formed, Day 5",HIV-1 NDK; 0.005 μM,+
same,"syncitia formed, Day 6",HIV-1 NDK; 0.005 μM,++
same,"syncitia formed, Day 7",HIV-1 NDK; 0.005 μM,++/T
same,P 24,HIV-1 NDK; 0.005 μM,23810 pg/mL
same,"syncitia formed, Day 4",HIV-1 NDK; 0.01 μM,−
same,"syncitia formed, Day 5",HIV-1 NDK; 0.01 μM,+
same,"syncitia formed, Day 6",HIV-1 NDK; 0.01 μM,++
same,"syncitia formed, Day 7",HIV-1 NDK; 0.01 μM,++
same,P 24,HIV-1 NDK; 0.01 μM,23810 pg/mL
same,"syncitia formed, Day 4",HIV-1 NDK; 0.05 μM,−
same,"syncitia formed, Day 5",HIV-1 NDK; 0.05 μM,+
same,"syncitia formed, Day 6",HIV-1 NDK; 0.05 μM,++
same,"syncitia formed, Day 7",HIV-1 NDK; 0.05 μM,++
same,P 24,HIV-1 NDK; 0.05 μM,23810 pg/mL
same,"syncitia formed, Day 4",HIV-1 NDK; 0.1 μM,−
same,"syncitia formed, Day 5",HIV-1 NDK; 0.1 μM,(+)
same,"syncitia formed, Day 6",HIV-1 NDK; 0.1 μM,++
same,"syncitia formed, Day 7",HIV-1 NDK; 0.1 μM,++
same,P 24,HIV-1 NDK; 0.1 μM,21810 pg/mL and 23870 pg/mL
same,"syncitia formed, Day 4",HIV-1 NDK; 0.5 μM,−
same,"syncitia formed, Day 5",HIV-1 NDK; 0.5 μM,(+)
same,"syncitia formed, Day 6",HIV-1 NDK; 0.5 μM,++
same,"syncitia formed, Day 7",HIV-1 NDK; 0.5 μM,++
same,P 24,HIV-1 NDK; 0.5 μM,9810 pg/mL and 15856 pg/mL
same,"syncitia formed, Day 4",HIV-1 NDK; 1 μM,−
same,"syncitia formed, Day 5",HIV-1 NDK; 1 μM,−
same,"syncitia formed, Day 6",HIV-1 NDK; 1 μM,+
same,"syncitia formed, Day 7",HIV-1 NDK; 1 μM,++
same,P 24,HIV-1 NDK; 1 μM,9870 pg/mL and 13890 pg/mL
same,"syncitia formed, Day 4",HIV-1 NDK; 5 μM,−
same,"syncitia formed, Day 5",HIV-1 NDK; 5 μM,−
same,"syncitia formed, Day 6",HIV-1 NDK; 5 μM,+
same,"syncitia formed, Day 7",HIV-1 NDK; 5 μM,++
same,IC50,"HIV-1 NDK; HIV 1 NDK, Table 10",500 nM
same,IC100,"HIV-1 NDK; HIV 1 NDK, Table 10",>5 µM
same,Day 7 syncitia formed,"HIV-1 NL 4-3 [2]; 0.005 μM, Table 6",++/T
same,"syncitia formed, Day 4","HIV-1 NL 4-3 [2]; 0.01 μM, C8166 cells",(+)
same,"syncitia formed, Day 5","HIV-1 NL 4-3 [2]; 0.01 μM, C8166 cells",+
same,"syncitia formed, Day 6","HIV-1 NL 4-3 [2]; 0.01 μM, C8166 cells",++
same,"syncitia formed, Day 7","HIV-1 NL 4-3 [2]; 0.01 μM, Day 7, C8166 cells",++
same,P 24,"HIV-1 NL 4-3 [2]; 0.01 μM, P 24 after Day 7, C8166 cells",23810 pg/mL
same,"syncitia formed, Day 4","HIV-1 NL 4-3 [2]; 0.05 μM, C8166 cells",(+)
same,"syncitia formed, Day 5","HIV-1 NL 4-3 [2]; 0.05 μM, C8166 cells",+
same,"syncitia formed, Day 6","HIV-1 NL 4-3 [2]; 0.05 μM, C8166 cells",+
same,"syncitia formed, Day 7","HIV-1 NL 4-3 [2]; 0.05 μM, Day 7, C8166 cells",++
same,P 24,"HIV-1 NL 4-3 [2]; 0.05 μM, P 24 after Day 7, C8166 cells",13810 pg/mL and 12980 pg/mL
same,"syncitia formed, Day 4","HIV-1 NL 4-3 [2]; 0.1 μM, C8166 cells",−
same,"syncitia formed, Day 5","HIV-1 NL 4-3 [2]; 0.1 μM, C8166 cells",(+)
same,"syncitia formed, Day 6","HIV-1 NL 4-3 [2]; 0.1 μM, C8166 cells",+
same,"syncitia formed, Day 7","HIV-1 NL 4-3 [2]; 0.1 μM, Day 7, C8166 cells",+
same,"syncitia formed, Day 4","HIV-1 NL 4-3 [2]; 0.5 μM, C8166 cells",−
same,"syncitia formed, Day 5","HIV-1 NL 4-3 [2]; 0.5 μM, C8166 cells",−
same,"syncitia formed, Day 6","HIV-1 NL 4-3 [2]; 0.5 μM, C8166 cells",−
same,"syncitia formed, Day 7","HIV-1 NL 4-3 [2]; 0.5 μM, Day 7, C8166 cells",+
same,P 24,"HIV-1 NL 4-3 [2]; 0.5 μM, P 24 after Day 7, C8166 cells",23000 pg/mL and 15810 pg/mL
same,"syncitia formed, Day 4","HIV-1 NL 4-3 [2]; 1 μM, C8166 cells",−
same,"syncitia formed, Day 5","HIV-1 NL 4-3 [2]; 1 μM, C8166 cells",−
same,"syncitia formed, Day 6","HIV-1 NL 4-3 [2]; 1 μM, C8166 cells",−
same,"syncitia formed, Day 7","HIV-1 NL 4-3 [2]; 1 μM, Day 7, C8166 cells",(+)
same,P 24,"HIV-1 NL 4-3 [2]; 1 μM, P 24 after Day 7, C8166 cells",316 pg/mL and 343 pg/mL
same,"syncitia formed, Day 4","HIV-1 NL 4-3 [2]; 5 μM, C8166 cells",−
same,"syncitia formed, Day 5","HIV-1 NL 4-3 [2]; 5 μM, C8166 cells",−
same,"syncitia formed, Day 6","HIV-1 NL 4-3 [2]; 5 μM, C8166 cells",−
same,"syncitia formed, Day 7","HIV-1 NL 4-3 [2]; 5 μM, Day 7, C8166 cells",(+)
same,P 24,"HIV-1 NL 4-3 [2]; 5 μM, P 24 after Day 7, C8166 cells",152 pg/mL
same,IC50,HIV-1 NL 4-3 [2]; [3],60 nM and 100 nM
same,IC100,HIV-1 NL 4-3 [2]; [3],5 µM and >5 µM
same,P 24,"HIV-1 NL 4-3 [2]; Day 7, 0.005 μM, Table 6",23810 pg/mL
same,P 24,"HIV-1 NL 4-3 [2]; Day 7, 0.01 μM, Table 6",23810 pg/mL
same,P 24,"HIV-1 NL 4-3 [2]; Day 7, 0.1 μM, Table 6",5810 pg/mL and 10110 pg/mL
same,P 24,"HIV-1 NL 4-3 [2]; Day 7, 0.5 μM, Table 6",2507 pg/mL and 2840 pg/mL
